Data from patent US20190225652A1, “GENERATION OF PEPTIDES” (Hexima Limited, priority 2015, published 2019).

Legend:
[1] = system: rOaAEP1b, rOaAEP3, rOaAEP4 and rOaAEP5; test: Cyclization assay with rOaAEP1b, rOaAEP3, rOaAEP4 and rOaAEP5 (MALDI/ESI MS); assay type: biochemical, Oldenlandia affinis; conditions: peptides with added AEP recognition residues, 280 μM, enzymes 19.7 μg mL^−1 total protein, MS
Procedure: Linear target peptides (280 μM, unless otherwise indicated) were incubated with rOaAEP1b, rOaAEP3, rOaAEP4 or rOaAEP5 (total protein concentration as indicated in the description of figures) in activity buffer (50 mM sodium acetate, 50 mM NaCl, 1 mM ethylenediaminetetraacetic acid [EDTA], 0.5 μM Tris(2-carboxyethyl)phosphine hydrochloride [TCEP], pH 5). The reaction was allowed to proceed for up to 22 hours at room temperature and was analysed by matrix-assisted laser desorption/ionization mass spectrometry (MALDI MS), high performance liquid chromatography (HPLC) or nuclear magnetic resonance (NMR) as appropriate.
Cyclization or inter-molecular ligation of linear target peptides was monitored by MALDI or ESI MS. In both cases, the reaction mixture (5-50 μL) was de-salted using C18 zip tips (Millipore) and eluted in 4 μL 50-75% v/v acetonitrile, 0.1% v/v trifluoroacetic acid (TFA).
For MALDI MS, a saturated MALDI matrix solution (α-cyano-4-hyroxycinnamic acid, CHCA, Bruker) prepared in 95% v/v acetonitrile, 0.1% v/v TFA was diluted 1:22 such that the final matrix solution comprised 90% v/v acetonitrile, 0.1% v/v TFA and 1 mM NH4H2PO4. Eluted samples were mixed 1:4 with the MALDI matrix, spotted onto a MALDI plate and analyzed by an Ultraflex III TOF/TOF (Bruker) in positive reflector mode. Data were analyzed using the flexAnalysis program (Bruker).
For ESI MS, 96 μl of 75% v/v acetonitrile, 01% v/v TFA was added to the de-salted sample. The sample was then injected into a MicroTOF Q (Bruker) and data was collected in positive ionisation mode. The mass of ligated or cyclized product was determined by charge deconvolution using the Compass DataAnalysis program (Bruker).
The ability of activated AEPs (rOaAEP1b, rOaAEP3, rOaAEP4 and rOaAEP5) to cyclize peptide substrates structurally unrelated to cyclotides was tested in the cyclization assay described in the Materials and Methods. The anti-malarial peptide R1 (Harris et al. (2009) J Biol Chem 284(14):9361-9371; Harris et al. (2005) Infect Immun 73(10):6981-6989); Bac2A, a linear derivative of the bovine peptide bactenecin (Wu and Hancock (1999) Antimicrob Agents Ch 43:1274-1276); and the anti-fungal peptide EcAMP1 (Nolde et al. (2011) J Biol Chem 286(28):25145-25153) were produced with additional AEP recognition residues and used as the substrates.
To investigate the sequence requirements for in vitro cyclization, R1 was used as a model peptide. The recognition residues added to this model peptide were sequentially trimmed to determine the minimal requirements for AEP-mediated cyclization. The N- and C-terminal recognition residues were also substituted with alternate amino acids to determine if particular classes of residues were preferred for cyclization by these recombinant AEPs. The ability of activated AEPs (rOaAEP1b, rOaAEP3, rOaAEP4 and rOaAEP5) to cyclize the R1 peptide with varied flanking sequences was then tested in the cyclization assay described in the Materials and Methods (FIG. 10; Table 3).

rOaAEP1b = test: Cyclization assay with rOaAEP1b (MALDI MS); assay type: biochemical, Oldenlandia affinis
Sequence of rOaAEP1b (as listed by the source): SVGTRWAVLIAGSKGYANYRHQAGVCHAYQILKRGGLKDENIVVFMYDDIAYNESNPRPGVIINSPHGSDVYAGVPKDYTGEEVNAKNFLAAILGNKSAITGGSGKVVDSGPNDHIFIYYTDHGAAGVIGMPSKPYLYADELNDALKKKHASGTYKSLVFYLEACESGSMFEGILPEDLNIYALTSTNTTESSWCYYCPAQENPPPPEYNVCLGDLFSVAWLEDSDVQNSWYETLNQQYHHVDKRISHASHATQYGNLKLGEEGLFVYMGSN

[2] = system: target peptide-linker-ubiquitin-6xHis fusion protein; test: AEP-mediated processing of target peptides fused to ubiquitin; assay type: biochemical; conditions: kalata B1-ubiquitin 260 μg mL^−1, AEP 19.7 μg mL^−1 total protein, 22 h, SDS-PAGE/anti-6xHis Western blot
[3] = Protease activity against fluorogenic substrate Z-AAN-MCA; assay type: biochemical; conditions: enzyme ~5 μg mL^−1 total protein, Z-AAN-MCA 100 μM, 37° C., 60 minutes
Procedure: FIG. 15 is a graphical representation of the activity of recombinant O. affinis AEPs (˜5 μg mL^−1 total protein) and rhuLEG (1 μg mL^−1 total protein) over time against the fluorogenic substrate Z-AAN-MCA (100 μM). Activity is tracked at 1 minute intervals at 37° C. for 60 minutes using excitation and emission wavelengths of 360 and 460 nm respectively. A single representative experiment is shown. RFU, relative fluorescence units.
To assay activity of recombinant AEPs (rOaAEP1b, rOaAEP3, rOaAEP4 or rOaAEP5) against both internally-quenched and other fluorescent peptides, substrate and enzyme were diluted as appropriate in activity buffer (50 mM sodium acetate, 50 mM NaCl, 1 mM EDTA, 0.5 μM TCEP, pH 5). To assay activity of recombinant human legumain (rhuLEG; R&D systems) against the same substrates, the enzyme was first activated by incubation in 50 mM sodium acetate, 100 mM NaCl, pH 4 (4 μL buffer/1 μL enzyme) for 2 hours at 37° C. Substrates and activated rhuLEG were diluted in 50 mM acetate, 0.1% v/v triton X 100, 0.5 μM TCEP pH 5.5 or in 50 mM MES, 250 mM NaCl, pH 5 as required. Diluted enzyme and substrate were added to black, flat bottomed microtiter plates in a total assay volume of 100-200 μL. The change in fluorescence intensity over time was monitored on a SpectraMax M2 (Molecular Devices) using excitation/emission wavelengths of 320/420 nm (IQF peptides) or 360/460 nm (other fluorescent peptides).
AEP activity has traditionally been tracked by monitoring cleavage of the fluorescent substrate Z-AAN-MCA (where Z is carboxybenzyl; MCA is 7-amido-4-methylcoumarin) [Saska et al. (2007) supra; Rotari et al. (2001) Biol. Chem. 382:953-959]. Cleavage C-terminal to the Asn liberates the fluorophore which then fluoresces to report substrate cleavage. […] They are Ac-YVAD-CHO, which is routinely used to identify AEP activity (Hatsugai et al. (2004) Science 305(5685): 855-858) and Ac-STRN-CHO, which represents the P1-P4 residues of the C-terminal kB1 cleavage site. These traditional routes of identifying AEP activity will therefore likely be ineffective for identification of AEPs with cyclizing ability.

[4] = rOaAEP1b 12 μg mL^−1 total protein, 22 hours, peak area as percentage of total peak area of that peptide, average of three experiments

Molecule | Cyclic product (%) (rOaAEP1b; [4]) | Linear precursor (%) (rOaAEP1b; [4]) | other results
GLPGSGRGSCRSQCMRRHEDEPWRVQECVSQCRRRRGGGDTRNGLP (additional AEP recognition residues; EcAMP1) [anti-fungal peptide EcAMP1 with additional AEP recognition residues] |  |  | cyclization of linear precursor peptide by recombinant AEPs [1]: efficiently cyclized
GLPRLARIVVIRVARTRNGLP (Bac2A) |  |  | cyclization of linear precursor peptide by recombinant AEPs [1]: efficiently cyclized
GLPVFAEFLPLFSKFGSRMHILKSTRNGL (R1) [anti-malarial peptide R1 produced with additional AEP recognition residues] |  |  | cyclization of linear precursor peptide by recombinant AEPs [1]: efficiently cyclized
GLPVFAEFLPLFSKFGSRMHILKSTRNGLP (rOaAEP1b-mediated processing) [SEQ ID NO: 26, R1 peptide derivative] | 78.8% | 21.2% | 
GLVFAEFLPLFSKFGSRMHILKNG (rOaAEP1b-mediated processing) [SEQ ID NO: 28, R1 peptide derivative] |  | 100% | 
GLVFAEFLPLFSKFGSRMHILKNGL (rOaAEP1b-mediated processing) [SEQ ID NO: 27, R1 peptide derivative] | 92.9% | 7.1% | 
KLVFAEFLPLFSKFGSRMHILKNGL (rOaAEP1b-mediated processing) [SEQ ID NO: 31, R1 peptide derivative] | 82.2% | 17.8% | 
QLVFAEFLPLFSKFGSRMHILKNGL (rOaAEP1b-mediated processing) [SEQ ID NO: 30, R1 peptide derivative] | 93.1% | 6.9% | 
VFAEFLPLFSKFGSRMHILK [native R1 peptide, reference compound] |  |  | processing/cyclization by rOaAEP1b (rOaAEP1b; MALDI MS): No processing
VFAEFLPLFSKFGSRMHILKNGL (rOaAEP1b-mediated processing) [SEQ ID NO: 29, R1 peptide derivative] | 49.6% | 27.7% | Linear product (%) (rOaAEP1b; [4]): 27.7%
rOaAEP5: recombinant Oldenlandia affinis asparaginyl endopeptidase OaAEP5 |  |  | proportion of fusion protein enzymatically processed (loss of precursor) [2]: the bulk of the precursor was being enzymatically processed; activity against Z-AAN-MCA [3]: nor rOaAEP1b, rOaAEP3, rOaAEP4 or rOaAEP5 (FIG. 15) had detectable activity
rOaAEP3: recombinant Oldenlandia affinis asparaginyl endopeptidase OaAEP3 (protein, Oldenlandia affinis OaAEP3) MVRYLAGAFQVVLLVVILSDIAISEERTDGYLKLPTEVSRFFRTPEQSSDGGDDSIGTRWAVLIAGSKGYDNYRHQADVCHAYQILKRGGLKDENIVVFMYDDIAYNESNPRPGVIINSPHGSDVYAGVPKDYTGDEVNAKNFLAAILGNKSAITGGSGKVVDSGPNDHIFIYYTDHGAPGVIGMPSKPYLYADELNDALRKKHASGTYKSMVFYLEACEAGSMFDGLLPDGLNIYALTASNTTEGSWCYYCPGQDAGPPPEYSVCLGDFFSIAWLEDSDVHNLRSETLNQQYHNVKNRISYASHATQYGDLKRGVEGLFLYLGSNPENDNYTFVDDNVVRPSSKAVNQRDADLVHFWEKFRKAPEGSSKKEEAQKQILEAMSHRVHIDSSINLIGKLLFGIEKGHKILTAVRSAGHPLVDDWACLRSLVRTFETHCGSLSQYGMKHTRTLANICNAGITEEQMAEAASQACVSIPSNPWSSHDGGFSA |  |  | proportion of fusion protein enzymatically processed (loss of precursor) [2]: the bulk of the precursor was being enzymatically processed; activity against Z-AAN-MCA [3]: nor rOaAEP1b, rOaAEP3, rOaAEP4 or rOaAEP5 (FIG. 15) had detectable activity
rOaAEP4: recombinant Oldenlandia affinis asparaginyl endopeptidase OaAEP4 (protein, OaAEP4 aa, recombinant Oldenlandia affinis asparaginyl endopeptidase OaAEP4) MVRYPAGAVLLLVVLSVVAVDGARDGYLKLPSEVSDFFRPRNTNDGDDSVGTRWAVLLAGSNGYWNYRHQADLCHAYQILKRGGLKDENIVVFMYDDIAYNEENPRPGVIINSPHGSDVYAGVPKDYTGDEVNAKNFLAAILGNKSAITGGSGKVVDSGPNDHIFIYYTDHGAPGVIGMPSKPYLYADELNDALRKKHASGTYKSMVFYLEACEAGSMFDGLLPDGLNIYALTASNTTEGSWCYYCPGQDAGPPPEYSVCLGDFFSIAWLEDSDVHNLRSETLNQQYHNVKNRISYASHATQYGDLKRGVEGLFLYLGSNPENDNYTFVDDNVVRPSSKAVNQRDADLVHFWEKFRKAPEGSSKKEEAQKQILEAMSHRVHIDSSINLIGKLLFGIEKGHKILTAVRSAGHPLVDDWACLRSLVRTFETHCGSLSQYGMKHTRTLANICNAGITEEQMAEAASQACVSIPSNPWSSHDGGFSA |  |  | proportion of fusion protein enzymatically processed (loss of precursor) [2]: a smaller proportion of the precursor protein was processed; activity against Z-AAN-MCA [3]: nor rOaAEP1b, rOaAEP3, rOaAEP4 or rOaAEP5 (FIG. 15) had detectable activity
